The record followed here is patent publication US9750449B2, “Method of assessing skin” (Johnson & Johnson Consumer Inc., priority 2003, dated 2017).

The structures appear in SMILES notation.

For test [1], the system named is facial skin. As to the kind of experiment: Visual observation of the appearance of wrinkles in treated areas. The test is classed as in vivo, human. The note with it: cream with 0.15% retinol applied daily, vehicle cream alone had no effect.
Test [2] has as its system facial skin. As to the kind of experiment: In vivo facial skin fluorescence after daily topical retinol cream versus vehicle. Also on record: species or system human. Particulars: cheek. An excerpt: In vivo fluorescence spectroscopy can be performed for example using a fiber optic probe attached to a spectrofluorimeter (e.g. the model SkinSkan (J Y Horiba, Edison, N.J.)). The method requires: a) a UV radiation source (e.g., a Xenon arc lamp or a mercury lamp), b) a method of selecting the radiation wavelength (e.g. a monochromator, a prism, or a grating), c) a method of delivery of the radiation to the tissue (e.g. a fiber bundle), d) a method of collection of the emitted radiation from the tissue (e.g. a fiber bundle), e) a method of selecting the emitted radiation wavelength (e.g. a monochromator, a prism, or a grating), and f) a method of detecting the emitted radiation (e.g. a photomultiplier, a single photodiode, a photodiode array, or a CCD array). See, e.g., Stamatas G N, et al., J Invest Dermatol 118(2):295-302, 2002.
Measurements were preformed by placing the fiber optic probe in contact with the skin site of interest. Before each set of measurements, the instrument was spectrally calibrated for excitation and emission in the region 250-650 nm. […]
Acquisition of excitation spectra was the preferred method of measuring in vivo skin fluorescence. […]
In order to account for variations in skin native pigmentation that attenuates the detected fluorescence signal, fluorescence intensity was normalized with the diffuse reflectance signal of the same skin site at the corresponding wavelength. […] The measured fluorescence in this wavelength region arises from the dermis (Gillies et al, 2000, Kollias et al, 1998), which means that excitation light has to travel through the whole epidermis where it is attenuated by epidermal melanin and proteins, both of which absorb strongly in the UV. […] Furthermore, the intensity of the light source is low below 300 nm and normalization of the fluorescence by the diffuse reflectance signal in this wavelength range amplified the noise. […] To overcome this problem, the tryptophan fluorescence signal may be normalized to another fluorescence band, rather than to the diffuse reflectance value at 295 nm. […]

`CC1=C(/C=C/C(C)=C/C=C/C(C)=C/CO)C(C)(C)CCC1` [retinol]: in the test with facial skin [1], the “appearance of wrinkles (visual observations)” value is recorded as “reduction in the appearance of wrinkles”. The “rate of decrease in the 295 nm band fluorescence” value in the test on facial skin [2] (cream with 0.15% retinol and SPF 15 sunscreen applied daily, measured at baseline, 3 and 6 months, placebo −0.04 units/month) is reported as −0.01 units/month. Also, in the test with facial skin [2] (cream with 0.15% retinol applied daily, 6 months), the “change of the 390 nm band fluorescence over the period of the study” value is recorded as “did not significantly change”. In addition, the “normalized tryptophan fluorescence values (I295nm/I390nm) over time” value with facial skin [2] (cream with 0.15% retinol applied daily, 6 months, p<0.05 versus vehicle (−0.062±0.029 ratio units per month)) was “remained virtually constant”.
